Read-outs that look alike come from different tables or passages of the source.
Assays:
[1] = test system: amphetamine-induced symptoms (characteristic amphetamine behaviour of cage movement); assay: Antagonism of amphetamine symptoms in rats (rat amphetamine test); type: in vivo; conditions: block of cage movement in 50% of rats; for ED50: Rattus norvegicus, sc; for ED50, rat amphetamine test, 1 hr.: 60 min; for ED50, rat amphetamine test, 5 hr.: 300 min; for ED50, rat amphetamine test, 24 hr.: 1440 min
Text: The tranquilizing activity of the derivatives may be determined using the well known standard procedure-antagonism of amphetamine-induced symptoms in rats.
The effects of the above examples of Derivatives on prominent amphetamine-induced symptoms were studied in rats by a rating scale modeled after the one reported by Quinton and Halliwell, and Weissman. Rats were placed individually in a covered plastic cage measuring approximately 26 cm.×42 cm×16 cm. After a brief period of acclimation of the cage, the rats in each group, commonly, five animals per dose level, were treated subcutaneously (s.c.) with a selected dose of the Derivative to be tested. They were then treated 1, 5 and 24 hrs. later with d-amphetamine sulfate, 5 mg./kg. intraperitoneally (i.p.). […] The time of rating chosen coincides with the peak action of amphetamine which is 60-80 min. after dosing.

dopamine receptors = target: T1, dopamine receptors (Rattus norvegicus, UniProt P61169); assay: Inhibition of ^3 H-spiroperidol binding to dopamine receptors (rat corpus striatum homogenate); parameters: species or system rat (Sprague-Dawley CD); conditions: 0.5 nM ^3 H-spiroperidol, 10 min at 37° C.
T1 construct: brains were immediately dissected on an ice-cold glass plate to remove corpus striatum; from tissue; host or cells: rat corpus striatum, washed homogenate (Sprague-Dawley CD males)
Method: The procedure was as follows:
Rats (Sprague-Dawley CD males, 250-300 g., Charles River Laboratories, Wilmington, Mass.) were decapitated, and brains were immediately dissected on an ice-cold glass plate to remove corpus striatum (~100 mg./brain). Tissue was homogenized in 40 volumes (1 g.+40 ml). of ice-cold 50 mM. […] The tissue suspension was placed in a 37° C. water bath for 5 minutes to insure inactivation of tissue monoamine oxidase and then kept on ice until used. The incubation mixture consisted of 0.02 ml. inhibitor solution (the desired concentration of the derivative to be tested in stock solution). […] Tubes were incubated in sequence for 10 minutes at 37° C. in groups of three, after which 0.9 ml. of each incubation tube was filtered through Whatman FG/B filters using a high vacuum pump. Each filter was placed in a scintillation vial, 10 ml. of liquid scintillation fluor was added and each vial was vigorously vortexed for about five seconds. Samples were allowed to stand over night, until filters were translucent, vortexed again and then counted 1.0 minute for radioactivity. Binding was calculated as femtomales (10^-15 moles) of ^3 H-spiroperidol bound per mg. protein. Controls (vehicle or 1 butaclamol, 10^-7 M; 4.4 mg. dissolved in 200 μl. glacial acetic acid, then diluted to 2.0 ml. with DDW for 10^-4 M stock solution, kept refrigerated), blank (d-butaclamol, 10^-7 M; (4.4 mg./2 ml.) for 10^-4 M stock solution, same protocol as 1-butaclamol); and inhibitor solutions were run in triplicate. […] Insoluble drugs were dissolved in 50% ethanol (1% ethanol incubation).
**DDW=Double Distilled Water.

[2] = 1 h, s.c., d-amphetamine sulfate 5 mg/kg i.p. 1 hr after treatment, read-out: ED50, rat amphetamine test, 1 hr.
[3] = 5 h, read-out: ED50, rat amphetamine test, 5 hr., s.c., d-amphetamine sulfate 5 mg/kg i.p. 5 hr after treatment
[4] = 24 h, s.c., d-amphetamine sulfate 5 mg/kg i.p. 24 hr after treatment, read-out: ED50, rat amphetamine test, 24 hr.
[5] = s.c., d-amphetamine sulfate 5 mg/kg i.p. 1 hr after treatment
[6] = s.c., d-amphetamine sulfate 5 mg/kg i.p. 5 hr after treatment
[7] = s.c., d-amphetamine sulfate 5 mg/kg i.p. 24 hr after treatment

T1 sequence (P61169 whole entry): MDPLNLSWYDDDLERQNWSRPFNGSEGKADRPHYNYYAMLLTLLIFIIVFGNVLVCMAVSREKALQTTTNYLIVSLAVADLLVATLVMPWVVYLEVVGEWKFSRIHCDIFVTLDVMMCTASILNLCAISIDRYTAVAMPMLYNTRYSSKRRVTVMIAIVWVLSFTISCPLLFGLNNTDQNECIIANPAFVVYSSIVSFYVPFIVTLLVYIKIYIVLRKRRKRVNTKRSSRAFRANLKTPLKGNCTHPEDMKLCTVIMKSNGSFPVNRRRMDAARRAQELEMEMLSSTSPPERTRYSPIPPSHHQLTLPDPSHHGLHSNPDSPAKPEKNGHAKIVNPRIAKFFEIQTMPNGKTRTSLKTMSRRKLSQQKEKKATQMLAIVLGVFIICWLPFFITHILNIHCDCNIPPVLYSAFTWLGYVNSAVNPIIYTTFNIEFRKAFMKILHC

SMILES	IC50 (dopamine receptors) [nM]	ED50 [1, 2] [mg/kg]	ED50 [1, 3] [mg/kg]	ED50 [1, 4] [mg/kg]	ED50, rat amphetamine test, 1 hr. [1, 5] [mg/kg]	ED50, rat amphetamine test, 5 hr. [1, 6] [mg/kg]	ED50, rat amphetamine test, 24 hr. [1, 7] [mg/kg]
Cc1ccc(S(=O)(=O)NCCCCN2CC[C@H]3[C@H](C2)c2cc(F)ccc2N3c2ccc(F)cc2)cc1 (relative stereo) [Example 16, (±) 2-(N--p-toluenesulfonyl-1'-amino-n-but-4'-yl)]		1	1				
CC(=O)NCCN1CC[C@H]2[C@H](C1)c1cc(F)ccc1N2c1ccc(F)cc1 (relative stereo) [Example 6, 2-(N-acetyl-2-aminoethyl)-5-(p-fluorophenyl)-8-fluoro-2,3,4,4a,5,9b-hexahydro-trans-4a,9b-1(H)-pyrido[4,3-b]indole]	16	0.11	0.36	1			
CC(=O)NCCCCN1CCC2C(C1)c1cc(F)ccc1N2c1ccc(F)cc1 (single isomer, unassigned; (-)) [Example 12, (-) enantiomer of 2-(N--acetyl-1'-amino-n-but-4'-yl)]	1000				1	1	1
COc1ccccc1C(=O)NCCCCN1CC[C@H]2[C@H](C1)c1cc(F)ccc1N2c1ccc(F)cc1 (relative stereo) [Example 15, (±) 2-[N--(o-methoxybenzoyl)-1'-amino-n-but-4'-yl]]	14	0.45	0.18	1			
CC(=O)NCCCCN1CC[C@H]2[C@H](C1)c1ccccc1N2c1ccccc1 (relative stereo) [Example 17, (±) 2-(N--acetyl-1'-amino-n-but-4'-yl)-5-phenyl-2,3,4,-4a,9b-hexahydro-trans-4a,9b-1(H)-pyrido[4,3-b]indole]	16						
NCCCCN1CC[C@H]2[C@H](C1)c1cc(F)ccc1N2c1ccc(F)cc1 (relative stereo) [Example 2, (±)2-(1'-amino-n-but-4'-yl)-5-(p-fluorophenyl)-8-fluoro-2,3,4,4a,5,9b-hexahydro-trans-4a,9b-1(H)-pyrido[4,3-b]indole]	24	17.7	4.5 to 11.5	17.7			
O=C(NCCCCN1CC[C@H]2[C@H](C1)c1cc(F)ccc1N2c1ccc(F)cc1)c1ccccc1 (relative stereo) [Example 13, (±) 2-(N--benzoyl-1'-amino-n-but-4'-yl)]		0.1 to 0.3	0.01 to 0.03	0.3 to 1			

More lines, main results first:

IC50 (dopamine receptors) [nM]	SMILES	ED50 [1, 2] [mg/kg]	ED50 [1, 3] [mg/kg]	ED50 [1, 4] [mg/kg]	ED50, rat amphetamine test, 1 hr. [1, 5] [mg/kg]	ED50, rat amphetamine test, 5 hr. [1, 6] [mg/kg]	ED50, rat amphetamine test, 24 hr. [1, 7] [mg/kg]
13	CC(=O)NCCCCN1CC[C@H]2[C@H](C1)c1cc(F)ccc1N2c1ccc(F)cc1 (relative stereo) [Example 3, (±)2-(N-acetyl-1'-amino-n-but-4'-yl)-5-(p-fluorophenyl)-8-fluoro-2,3,4,4a,5,9b-hexahydro-trans-4a,9b-1(H)-pyrido[4,3-b]indole]	0.02	0.006	0.66			
9	CC(=O)NCCCCCN1CC[C@H]2[C@H](C1)c1cc(F)ccc1N2c1ccc(F)cc1 (relative stereo) [Example 8, (±) 2-(N--acetyl-1'-amine-n-pent-5'-yl)]	0.01	0.004	0.4			
9	CC(=O)NCCCCCCCN1CC[C@H]2[C@H](C1)c1cc(F)ccc1N2c1ccc(F)cc1 (relative stereo) [Example 10, (±) 2-(N--acetyl-1'-amino-n-hept-7'-yl)]	0.09	0.018	0.05			
11	CCOC(=O)NCCCCN1CC[C@H]2[C@H](C1)c1cc(F)ccc1N2c1ccc(F)cc1 (relative stereo) [Example 14, (±) 2-(N--ethoxycarbonyl-1'-amino-n-but-4'-yl)]	0.05	0.02	0.3			
4.7	CC(=O)NCCCCN1CCC2C(C1)c1cc(F)ccc1N2c1ccc(F)cc1 (single isomer, unassigned; (+)) [Example 11, (+) enantiomer of 2-(N--acetyl-1-'-amino-n-but-4-yl)]				0.02	0.006	0.28
8	CC(=O)NCCCCCCN1CC[C@H]2[C@H](C1)c1cc(F)ccc1N2c1ccc(F)cc1 (relative stereo) [Example 9, (±) 2-(N--acetyl-1'-amino-n-hex-6'-yl)]	0.023	0.002	0.032			
10	CC(=O)NCCCN1CC[C@H]2[C@H](C1)c1cc(F)ccc1N2c1ccc(F)cc1 (relative stereo) [Example 7, (±) 2-(N--acetyl-1'-amino-n-prop-3-yl)]						

— US4352807A, “Hexahydro-trans-pyridoindole neuroleptic agents” (Pfizer Inc., priority 1980, dated 1982)
